Assay results reported in patent publication US20050020544A1, “Bicyclic CB2 cannabinoid receptor ligands” (priority 2002, published 2005).
Read-outs that look alike come from different tables or passages of the source.

Key:
human CB2 receptor = human CB2 receptor (Homo sapiens, UniProt P34972); experiment: Adenylylcyclase assay: forskolin-activated cAMP in CB2 transfected HEK-293 cells; type: cell-based; conditions: for inhibition at 1 µM: HEK293, read-out: % inhibition at 1 μM
Method: Cannabinoids and derivatives bind to G-protein-coupled CB1 and CB2 receptors and exert their activity via the inhibition of adenylylcyclase activity. An adenylylcyclase assay forms a basis for the functional analysis of the compounds by determining their capacity to inhibit or promote forskolin-activated cAMP production. The assay is carried out according to Chin et al. (Chin, C. N. et al., J. Neurochem. 70: 366-73, 1998). Briefly, HEK-293 human kidney cells (ATCC#CRL-1573) stably transfected with either the human CB1 or CB2 receptor (cDNA) were grown in DMEM supplemented with 10% fetal calf serum, 1% Penicillin-Streptomycin and 2 mM L-glutamine. Cells were seeded in 24 wells plate at 5×10^4 cells/well and incubated for 48 hours. Medium was then removed and the adherent cells were washed with PBS. Two hundred μl of serum free medium supplemented with 0.2 mM Ro 20-1724, 0.25% BSA, and 20 mM HEPES was then added to each well. The cells were then activated with 1 μM forskolin in presence of the bicyclic test compounds in concentrations ranging from 10 pM up to 1 μM. The activated cells were then incubated at 37° C. for 20 minutes and the reaction terminated with 1.2 M HCl to a final concentration of 0.1 M. Cells were lyzed by freeze and thaw and the lysate was neutralized with 2 M HEPES, pH 7.5. cAMP was measured in 50 μl aliquots using the [^3H]-cAMP assay system (Amersham).
This experiment was first performed on CB2 receptor transfected cells.

[1] = test system: TNF-α secretion from activated RAW 264.7 macrophages; experiment: Inhibition of TNF-α in LPS activated macrophages (ELISA); type: cell-based, mouse; conditions: for effect on TNF-α secretion: doses up to 20 μM
Source text: (§1) The technique used to quantify the amount of a given protein in a liquid sample, either tissue culture supernatant or body fluid, is based on Enzyme Linked ImmunoSorbent Assay (ELISA) methodology. Either commercially available or established in house, the assay is based on the capture of the protein of interest by specific antibodies bound to the bottom of an ELISA plate well. Unbound material is washed away, the captured protein is then exposed to a secondary antibody generally labeled with horseradish peroxidase (HRP) or alkaline phosphatase (ALP). Again the unbound material is washed away, the samples are then incubated with the appropriate substrate yielding a calorimetric reaction. The reaction is stopped and reading is performed in a spectrophotometer at the appropriate wavelength. Samples are tested at least in duplicate and the appropriate standard curve, consisting of serial dilutions of the recombinant target protein, is incorporated on each plate. Concentration of the protein in the sample is calculated from the standard curve.
RAW 264.7 macrophages, a mouse cell line (ATCC # TIB-71), were grown in Dulbecco's modified Eagle's medium (DMEM) with 4 mM L-glutamine adjusted to contain 1.5 g/L sodium bicarbonate, 4.5 g/L glucose, and 10% heat inactivated fetal bovine serum. Cells were grown in tissue culture flasks and seeded at appropriate density into 24 wells tissue culture plates. 0.5×10^6 Raw cells in one milliliter were stimulated with 2 μg/ml Lipopolysaccharide E. coli 055:B5 (DIFCO Laboratories). The mouse macrophages were pre-treated for one hour with controls or 10 μM of bicyclic CB2 ligands and later on activated with LPS. Dexamethasone was used as a positive control at 50 nM. Supernatant was collected 4 hours (for PGE2) and 24 hours (for IL-1β and TNF-α) after activation, and the levels of the inflammatory agent under study were determined by ELISA, as previously described. Inhibition was calculated versus vehicle treated cells.
The activation of the macrophages is performed as previously described. The levels of TNF-α are measured in an ELISA assay as previously described. Inhibition is calculated versus vehicle treated cells.

[2] = test system: IL-2 secretion from activated Jurkat cells; experiment: Inhibition of IL-2 in PMA/A23187 activated T cells (ELISA); type: cell-based, human; conditions: for IC50: 24 hours after stimulation, read-out: calculated IC50 IL-2 secretion; for reversal of IL-2 secretion inhibiting activity by antagonists: 0.5-5 μM of CB1 antagonist SR141716A or CB2 antagonist SR144528
Method: as §1, with “Unbound material is washed away, the captured protein is then exposed to a secondary antibody generally labeled with horseradish peroxidase (HRP) or alkaline phosphatase (ALP).” left out
Jurkat cells (human acute lymphoma T-cell line; ATCC # TIB-152) are grown in RPMI 1640 medium with 2 mM L-glutamine adjusted to contain 1.5 g/L sodium bicarbonate, 4.5 g/L glucose, 10 mM HEPES, 1.0 mM sodium pyruvate, and 10% heat inactivated fetal bovine serum. Cells are grown in tissue culture flasks and seeded at appropriate density into 24 wells tissue culture plates. 2×10^6 cells in one milliliter are stimulated using 10 ng/ml of PMA (Sigma) and 1 μM A23187 calcium ionophore (Sigma). […] The controls and test compounds are added at indicated concentrations one hour before stimulation. Supernatant is collected 24 hours after stimulation and the levels of the inflammatory agent under study are measured in an ELISA assay as previously described. Inhibition is calculated versus vehicle treated cells.
The activation of the T cells is performed as previously described. The levels of IL-2 are measured in an ELISA assay as previously described. Inhibition is calculated versus vehicle treated cells.

[3] = CB2 receptor transfected HEK-293, 1 μM forskolin, read-out: IC50 inhibition of cAMP level
[4] = CB2 receptor transfected HEK-293, 1 μM forskolin

Sequence of human CB2 receptor (P34972 whole entry): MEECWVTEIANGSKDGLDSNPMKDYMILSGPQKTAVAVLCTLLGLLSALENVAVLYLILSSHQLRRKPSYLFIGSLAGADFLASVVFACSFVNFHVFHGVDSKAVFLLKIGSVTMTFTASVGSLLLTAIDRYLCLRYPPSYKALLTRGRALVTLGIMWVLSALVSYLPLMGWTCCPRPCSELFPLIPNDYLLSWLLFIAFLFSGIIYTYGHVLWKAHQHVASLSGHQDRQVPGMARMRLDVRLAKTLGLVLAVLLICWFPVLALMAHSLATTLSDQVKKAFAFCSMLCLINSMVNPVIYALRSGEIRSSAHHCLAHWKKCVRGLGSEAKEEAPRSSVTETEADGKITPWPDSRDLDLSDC

Row | Structure (SMILES) | IC50 (human CB2 receptor; [3]) [µM] | inhibition at 1 µM (human CB2 receptor; [4]) [%] | effect on TNF-α secretion [1] | IC50 ([2]; Homo sapiens, Jurkat) [µM] | reversal of IL-2 secretion inhibiting activity by antagonists [2] | other results
1 | CCCCCCC(C)(C)c1cc(O)c([C@H]2CC(=O)[C@H]3C[C@@H]2C3(C)C)c(OC(=O)CCC(=O)O)c1 [Compound R, (−)-4-{4-[1,1-Dimethyl-heptyl]-2-succinate-6-hydroxy-phenyl}-6,6-dimethyl-bicyclo[3.1.1]heptan-2-one] | 0.00047 | 64 | none of them did significantly affect TNF-α secretion | 9 | – | –
2 | CCCCC(C)(C)c1cc(O)c(C2CC(=O)C3CC2C3(C)C)c(O)c1 (single isomer, unassigned; (-)) [Compound L, (−)-4-[4(1,1-Dimethyl-pentyl)-2,6-dihydroxy-phenyl]-6,6-dimethyl-bicyclo[3.1.1]heptan-2-one] | – | 33 | none of them did significantly affect TNF-α secretion | 8 | not reversed by any of these antagonists | –
3 | CCCCCCC(C)(C)c1cc(O)c(C2CC(=O)C3CC2C3(C)C)c(O)c1 (single isomer, unassigned; (-)) [Compound A, (−)-4-[4-(1,1-Dimethyl-heptyl)2,6-dihydroxy-phenyl]-6,6-dimethyl-bicyclo[3.1.1)heptan-2-one] | – | 63 | – | 3 | not reversed by any of these antagonists | IC50 (human CB2 receptor): 0.00024 µM; reduction of TNF-α secretion ([1]; 10 μM): 53%; IC50 ([1]; Mus musculus, RAW264.7): 10 µM
4 | CCCCCCC(C)(C)c1cc(OC)c(C2C=C(CO)C3CC2C3(C)C)c(OC)c1 (single isomer, unassigned; (+)) [HU-308, (+) {4-[4-(1,1-dimethylheptyl)-2,6-dimethoxy-phenyl]-6,6-dimethyl-bicyclo[3.1.1]hept-2-en-2-yl}-methanol, reference compound] | – | – | – | – | – | effect on IL-2 secretion ([2]; doses of up to 10 μM): minimal effect
5 | CCCCC(C)(C)c1cc(O)c(C2CC(=O)C3CC2C3(C)C)c(OC(=O)CCC(=O)O)c1 (single isomer, unassigned; (-)) [Compound Y, (−)-4-{4-[1,1-Dimethyl-pentyl]-2-succinate-6-hydroxy-phenyl}-6,6-dimethyl-bicyclo[3.1.1]heptan-2-one] | 0.00113 | – | none of them did significantly affect TNF-α secretion | – | – | % inhibition at 1 μM (human CB2 receptor; [4]): 60%; IC50 [2]: 9 µM
